Experimental data from patent US20140039044A1, “Hydroxylated Polymethoxyflavone Compositions” (WLLGEN, INC., priority 2006, published 2014).

Columns and labels:
Format in all cases: cell-based, human
HL-60 cells = assay: Cell survival assay (antiproliferative IC50); conditions: Homo sapiens; HL-60 cells; read-out: Antiproliferative IC50
AGS cells = assay: Cell cycle distribution by flow cytometry; conditions: 24 h; for Cell Cycle Distribution G0/G1 / Cell Cycle Distribution G2/M / Cell Cycle Distribution S: Table 11
Method: (§1) The human cancer cells (2×10^5) were cultured in 60-mm Petri dishes and incubated for 24 h. After treated with test compounds for 24 h, the cells were then harvested, washed with PBS resuspended in 200 μL of PBS, and fixed in 800 μL of iced 100% ethanol at −20° C. After being left to stand overnight, the cell pellets were collected by centrifugation, resuspended in 1 mL of hypotonic buffer (0.5% Triton X-100 in PBS and 0.5 μg/mL RNase) and incubated at 37° C. for 30 min. Next, 1 mL of propidium iodide solution (50 μg/mL) was added, and the mixture was allowed to stand on ice for 30 min. Fluorescence emitted from the propidium iodide-DNA complex was quantitated after excitation of the fluorescent dye by FACScan cytometry (Becton Dickinson, San Jose, Calif.).
(§2) The effects of the hydrolyzed PMF-enriched compositions, nobiletin and 70% PMF OPE on cell cycle distribution were studied, following the procedures described in Section 8.4. Results for cell cycle distribution in HL-60 cells, COLO205 cells and AGS cells are provided in Table 5, Table 6 and Table 7, respectively. […] In HL-60 cells, G2/M arrest predominated in cells treated with 6N PMF concentrations ≧5 μM and with 1N PMF concentrations ≧25 μM.
(§3) Compounds A-K were evaluated in terms of their effects in arresting cell cycle progression by observing cell cycle phase distribution in cells treated with the compounds. Cells were treated with 5, 10, 25, 50, and 100 μM of one of compound A-K or DMSO (control) for 24 h and subjected to flow cytometric analysis after staining their DNA, as described above.
(§4) Similar cell cycle phase distribution studies were performed in AGS, COLO205, and HT-29 cells in response to individual PMFs, with results reported in Tables 11, 12 and 13, respectively.

COLO205 cells = assay: Cell cycle distribution by flow cytometry; conditions: 24 h; for Cell Cycle Distribution G0/G1 / Cell Cycle Distribution G2/M / Cell Cycle Distribution S: COLO205 cells, Table 12
Method: as §1, §2, §3, §4

SMILES	IC50 (HL-60 cells) [µM]	Cell Cycle Distribution G0/G1 (AGS cells; 5 μM)	Cell Cycle Distribution G2/M (AGS cells; 5 μM)	Cell Cycle Distribution S (AGS cells; 5 μM)	Cell Cycle Distribution G0/G1 (AGS cells; 10 μM)	Cell Cycle Distribution G2/M (AGS cells; 10 μM)	Cell Cycle Distribution S (AGS cells; 10 μM)	Cell Cycle Distribution G0/G1 (AGS cells; 25 μM)	Cell Cycle Distribution G2/M (AGS cells; 25 μM)	Cell Cycle Distribution S (AGS cells; 25 μM)	Cell Cycle Distribution G0/G1 (AGS cells; 50 μM)	Cell Cycle Distribution G2/M (AGS cells; 50 μM)	Cell Cycle Distribution S (AGS cells; 50 μM)	Cell Cycle Distribution G0/G1 (AGS cells; 100 μM)	Cell Cycle Distribution G2/M (AGS cells; 100 μM)	Cell Cycle Distribution S (AGS cells; 100 μM)	Cell Cycle Distribution G0/G1 (COLO205 cells; 5 μM)	Cell Cycle Distribution G2/M (COLO205 cells; 5 μM)	Cell Cycle Distribution S (COLO205 cells; 5 μM)	Cell Cycle Distribution G0/G1 (COLO205 cells; 10 μM)	also measured
COc1ccc(-c2oc3c(OC)c(OC)c(OC)c(O)c3c(=O)c2OC)cc1OC [Compound C, 5-hydroxy-3,6,7,8,3′,4′-hexamethoxyflavone]	8.45 ± 1.6	45.5 ± 1.06	9.9 ± 0.07	45.2 ± 0.35	29.6 ± 1.77	22.0 ± 0.78	26.1 ± 0.85	20.6 ± 0.42	47.3 ± 1.13	31.3 ± 0.49	18.2 ± 0.42	32.7 ± 0.57	50.1 ± 1.20	17.0 ± 0.07	32.4 ± 0.78	52.0 ± 0.85	63.55 ± 0.99	6.16 ± 0.37	30.29 ± 0.61	75.57 ± 0.83	Cell cycle arrest, in words (AGS cells; 5-100 μM): decrease in G1 arrest accompanied by an increase in G2/M phase cell population; Cell Cycle Distribution G2/M (COLO205 cells; 10 μM): 6.37 ± 1.50; Cell Cycle Distribution S (COLO205 cells; 10 μM): 18.07 ± 0.67; Cell Cycle Distribution G0/G1 (COLO205 cells; 25 μM): 74.27 ± 0.83; Cell Cycle Distribution G2/M (COLO205 cells; 25 μM): 0.43 ± 0.20; Cell Cycle Distribution S (COLO205 cells; 25 μM): 25.30 ± 0.63; Cell Cycle Distribution G0/G1 (COLO205 cells; 50 μM): 58.30 ± 0.57; Cell Cycle Distribution G2/M (COLO205 cells; 50 μM): 16.70 ± 0.59; Cell Cycle Distribution S (COLO205 cells; 50 μM): 25.00 ± 1.16; Cell Cycle Distribution G0/G1 (COLO205 cells; 100 μM): 51.84 ± 0.31; Cell Cycle Distribution G2/M (COLO205 cells; 100 μM): 19.04 ± 0.39; Cell Cycle Distribution S (COLO205 cells; 100 μM): 29.13 ± 0.70; Cell cycle arrest, in words (COLO205 cells; COLO 205 cells, 5-100 μM): decrease in G1 arrest accompanied by an increase in G2/M phase cell population
COc1cc(-c2cc(=O)c3c(OC)c(OC)c(OC)c(OC)c3o2)ccc1O [Compound G, 4′-hydroxy-5,6,7,8,3′-pentamethoxyflavone]	47.4 ± 3.64	55.39 ± 0.47	16.76 ± 0.86	27.86 ± 1.32	60.42 ± 1.28	16.80 ± 1.75	22.79 ± 0.47	68.29 ± 0.95	14.39 ± 0.16	17.33 ± 0.80	62.27 ± 0.06	22.98 ± 1.90	14.78 ± 1.83	50.27 ± 0.52	26.85 ± 1.85	22.88 ± 2.38	67.93 ± 0.74	4.71 ± 0.18	27.36 ± 0.56	72.87 ± 2.37	Cell Cycle Distribution G2/M (COLO205 cells; 10 μM): 4.51 ± 0.08; Cell Cycle Distribution S (COLO205 cells; 10 μM): 22.64 ± 2.28; Cell Cycle Distribution G0/G1 (COLO205 cells; 25 μM): 73.74 ± 0.51; Cell Cycle Distribution G2/M (COLO205 cells; 25 μM): 6.47 ± 0.93; Cell Cycle Distribution S (COLO205 cells; 25 μM): 19.80 ± 0.42; Cell Cycle Distribution G0/G1 (COLO205 cells; 50 μM): 73.90 ± 0.41; Cell Cycle Distribution G2/M (COLO205 cells; 50 μM): 8.17 ± 0.23; Cell Cycle Distribution S (COLO205 cells; 50 μM): 17.94 ± 0.17; Cell Cycle Distribution G0/G1 (COLO205 cells; 100 μM): 73.05 ± 0.30; Cell Cycle Distribution G2/M (COLO205 cells; 100 μM): 7.61 ± 0.46; Cell Cycle Distribution S (COLO205 cells; 100 μM): 19.35 ± 0.76
